{"source": "patent US20050234531A1", "about": "“Method to treat age-related macular degeneration” (priority 2001, published 2005)", "tested_on": "age-related macular degeneration (AMD)", "experiment": "PDT with verteporfin combined with scatter threshold laser coagulation therapy in eighteen patients with AMD or early stage AMD", "type": "in vivo", "method": "Eighteen patients ranging in age from 50-80 years of age, and either previously diagnosed with AMD or with early stage AMD have been treated using the inventive method. All of these patients experienced at least some loss of vision pre-treatment.\nFor PDT, verteporfin was the photosensitive agent and was administered intravenously at a dose of 1-2 mg/kg. Verteporfin was activated using a coherent laser with the red beam (krypton) at a wavelength of 640 nm. For laser coagulation therapy, the spot size was 200 μm and the duration was 0.4 seconds. The number of spots applied was between 150 and 350. The interval between PDT and laser coagulation therapy was 5 minutes to 24 hours.", "data": [{"substance": "verteporfin", "values": [{"measurement": "Patients with improved visual acuity, as assessed by accurate reading of a standard vision chart", "setting": "verteporfin 1-2 mg/kg intravenously, activated at 640 nm, plus laser coagulation therapy 5 minutes to 24 hours apart, within six to eight weeks post-treatment, 18 patients", "value": "fifty"}, {"measurement": "Incidence of the need for retreatment", "setting": "verteporfin PDT plus laser coagulation therapy, entire patient population treated", "value": "zero"}, {"measurement": "Patients whose vision remained stable, assessed by no further loss of visual acuity", "setting": "verteporfin PDT plus laser coagulation therapy, over six to nine months, 18 patients", "value": "fifty"}, {"measurement": "Cases of laser-induced neovascularizations", "setting": "verteporfin PDT plus laser coagulation therapy, patients receiving the inventive treatment", "value": "no cases"}]}]}
